Test results: patent publication US10219516B2, “Molecules having pesticidal utility, and intermediates, compositions, and processes, related thereto” (priority 2015, dated 2019)
Where two headings read alike, the source gives them in different places.

Tests used:
Type in all cases: in vivo
[1] = tested on: Beet Armyworm (Spodoptera exigua, LAPHEG); experiment: Bioassay on Beet Armyworm (BAW), 128-well diet tray assay
How it was run: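 Test molecule dissolved in acetone-water 90:10 is applied at 50 μg/cm^2 onto artificial diet and allowed to dry. Second instar larvae, one to five per well, are then added, and trays are vented and kept at 25° C. for five to seven days before mortality is scored.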

[2] = tested on: Cabbage Looper (Trichoplusia ni, TRIPNI); experiment: Bioassay on Cabbage Looper (CL), 128-well diet tray assay; conditions: Trichoplusia ni
How it was run: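 Test molecule is dissolved in 90:10 acetone-water and applied at 50 μg/cm^2 onto artificial diet, then dried. One to five second-instar larvae go into each of eight wells. Trays, sealed but vented, stay at 25° C., 14:10 light-dark, five to seven days, after which mortality is averaged.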

[3] = tested on: Yellow Fever Mosquito (Aedes aegypti, AEDSAE); experiment: Bioassay on Yellow Fever Mosquito (YFM), 96-well plate larval assay; conditions: for YFM rating: Yellow Fever Mosquito, 96-well plate larval assay; for YFM (Biological Results, rating): Species YFM (Yellow Fever Mosquito)
Experimental: Certain molecules disclosed in this document were tested against YFM using procedures described in the following paragraph. In the reporting of the results, the “GPA & YFM Rating Table” was used (See Table Section).
Master plates containing 400 μg of a molecule dissolved in 100 μL of dimethyl sulfoxide (DMSO) (equivalent to a 4000 ppm solution) are used. A master plate of assembled molecules contains 15 μL per well. To this plate, 135 μL of a 90:10 water/acetone mixture is added to each well. A robot is programmed to dispense 15 μL aspirations from the master plate into an empty 96-well shallow plate (“daughter” plate). There are 6 reps (“daughter” plates) created per master. The created “daughter” plates are then immediately infested with YFM larvae.
The day before plates are to be treated, mosquito eggs are placed in Millipore water containing liver powder to begin hatching (4 g. into 400 mL). After the “daughter” plates are created using the robot, they are infested with 220 μL of the liver powder/larval mosquito mixture (about 1 day-old larvae). After plates are infested with mosquito larvae, a non-evaporative lid is used to cover the plate to reduce drying. Plates are held at room temperature for 3 days prior to grading. After 3 days, each well is observed and scored based on mortality. The results are indicated in the table entitled “Table ABC: Biological Results” (See Table Section).

[4] = Beet Armyworm, 128-well diet tray assay, read-out: BAW rating
[5] = Cabbage Looper, 128-well diet tray assay, read-out: CL rating
[6] = Species BAW (Beet Armyworm), read-out: BAW (Biological Results, rating)
[7] = Species CL (Cabbage Looper), read-out: CL (Biological Results, rating)

Compound	pest or weed control at 50 µg/cm2 [1, 4] [%]	pest or weed control at 50 µg/cm2 [2, 5] [%]	YFM rating [3]	pest or weed control at 50 µg/cm2 [1, 6] [%]	pest or weed control at 50 µg/cm2 [2, 7] [%]	YFM (Biological Results, rating) [3]
Cc1cc(NC(=O)c2cc(NC(=O)[C@H]3[C@H](c4cc(Cl)cc(Cl)c4)C3(Cl)Cl)ccc2Cl)cc(C)c1F (relative stereo) [PF53, trans-2-Chloro-5-(2,2-dichloro-3-(3,5-dichlorophenyl)cyclopropane-1-carboxamido)-N-(4-fluoro-3,5-dimethylphenyl)benzamide]	50 to 100	50 to 100	A (80-100)	–	–	–
O=C(Nc1ccc(F)cc1[N+](=O)[O-])c1cc(NC(=O)[C@H]2[C@H](c3ccc(Cl)c(Cl)c3)C2(Cl)Cl)ccc1Cl [F555, 2-Chloro-5-((1R,3R)-2,2-dichloro-3-(3,4-dichlorophenyl)cyclopropane-1-carboxamido)-N-(4-fluoro-2-nitrophenyl)benzamide]	50 to 100	50 to 100	A (80-100)	–	–	–
Nc1cc(NC(=O)c2cc(NC(=O)[C@H]3[C@H](c4cc(Cl)cc(Cl)c4)C3(Cl)Cl)ccc2Cl)c(F)cc1F [F353, N-(5-Amino-2,4-difluorophenyl)-2-chloro-5-((1R,3R)-2,2-dichloro-3-(3,5-dichlorophenyl)cyclopropane-1-carboxamido)benzamide]	–	–	–	50 to 100	50 to 100	A (80-100)
N#Cc1cc(F)ccc1NC(=O)c1cc(NC(=O)[C@H]2[C@H](c3cc(Cl)cc(Br)c3)C2(Cl)Cl)ccc1Cl (relative stereo) [F333, 5-(trans-3-(3-Bromo-5-chlorophenyl)-2,2-dichlorocyclopropane-1-carboxamido)-2-chloro-N-(2-cyano-4-fluorophenyl)benzamide]	–	–	–	50 to 100	50 to 100	A (80-100)
O=C(Nc1ccc(F)cc1)c1cc(NC(=O)[C@H]2[C@H](c3ccc(Cl)c(Br)c3)C2(Cl)Cl)ccc1Cl (relative stereo) [F330, 5-(trans-3-(3-Bromo-4-chlorophenyl)-2,2-dichlorocyclopropane-1-carboxamido)-2-chloro-N-(4-fluorophenyl)benzamide]	–	–	–	50 to 100	50 to 100	A (80-100)
O=C(Nc1ncc(F)cc1F)c1cc(NC(=O)[C@H]2[C@H](c3ccc(C(F)F)c(Cl)c3)C2(Cl)Cl)ccc1Cl (relative stereo) [F588, 2-Chloro-5-(trans-2,2-dichloro-3-(3-chloro-4-(difluoromethyl)phenyl)cyclopropane-1-carboxamido)-N-(3,5-difluoropyridin-2-yl)benzamide]	50 to 100	50 to 100	A (80-100)	–	–	–
O=C(Nc1ccc2ncoc2c1)c1cc(NC(=O)C2C(c3cc(Cl)cc(Cl)c3)C2(Cl)Cl)ccc1Cl (stereo not drawn) [F450, N-(Benzo[d]oxazol-6-yl)-2-chloro-5-(trans)-2,2-dichloro-3-(3,5-dichlorophenyl)cyclopropane-1-carboxamido)benzamide]	50 to 100	50 to 100	A (80-100)	–	–	–
O=C(Nc1ccc(F)cc1)c1cc(NC(=O)[C@H]2[C@H](c3cc(Cl)cc(Cl)c3)C2(Cl)Cl)ccc1OC(F)(F)F (relative stereo) [F135, trans-5-(2,2-Dichloro-3-(3,5-dichlorophenyl)cyclopropane-1-carboxamido)-N-(4-fluorophenyl)-2-(trifluoromethoxy)benzamide]	–	–	–	50 to 100	50 to 100	A (80-100)
O=C(Nc1cc(Cl)ccn1)c1cc(NC(=O)[C@H]2[C@H](c3cc(Cl)cc(Cl)c3)C2(Cl)Cl)ccc1Cl (relative stereo) [PF140, trans-2-Chloro-N-(4-chloropyridin-2-yl)-5-(2,2-dichloro-3-(3,5-dichlorophenyl)cyclopropane-1-carboxamido)benzamide]	50 to 100	50 to 100	A (80-100)	–	–	–
Nc1cc(F)cc(F)c1NC(=O)c1cc(NC(=O)[C@H]2[C@H](c3cc(Cl)c(Cl)c(Cl)c3)C2(Cl)Cl)ccc1Cl [F408, N-(2-Amino-4,6-difluorophenyl)-2-chloro-5-((1R,3R)-2,2-dichloro-3-(3,4,5-trichlorophenyl)cyclopropane-1-carboxamido)benzamide]	50 to 100	50 to 100	A (80-100)	–	–	–
CNc1ccc(NC(=O)c2cc(NC(=O)[C@H]3[C@H](c4cc(Cl)cc(Cl)c4)C3(Cl)Cl)cc(Cl)c2Cl)cc1 (relative stereo) [F249, trans-2,3-Dichloro-5-(2,2-dichloro-3-(3,5-dichlorophenyl)cyclopropane-1-carboxamido)-N-(4-(methylamino)phenyl)benzamide]	–	–	–	50 to 100	50 to 100	A (80-100)
Nc1c(F)ccc(NC(=O)c2cc(NC(=O)[C@H]3[C@H](c4ccc(F)c(Cl)c4)C3(Cl)Cl)ccc2Cl)c1F [F317, N-(3-Amino-2,4-difluorophenyl)-2-chloro-5-((1R,3R)-2,2-dichloro-3-(3-chloro-4-fluorophenyl)cyclopropane-1-carboxamido)benzamide]	–	–	–	50 to 100	50 to 100	A (80-100)
O=C(Nc1ncc(F)cc1F)c1cc(NC(=O)[C@H]2[C@H](c3ccc(Cl)c(Cl)c3)C2(Cl)Cl)ccc1Cl [F310, 2-Chloro-5-((1R,3R)-2,2-dichloro-3-(3,4-dichlorophenyl)cyclopropane-1-carboxamido)-N-(3,5-difluoropyridin-2-yl)benzamide]	–	–	–	50 to 100	50 to 100	A (80-100)
O=C(Nc1ccc(SC(F)(F)F)cc1)c1cc(NC(=O)[C@H]2[C@H](c3cc(Cl)cc(Cl)c3)C2(Cl)Cl)ccc1Cl (relative stereo) [PF11, trans-2-Chloro-5-(2,2-dichloro-3-(3,5-dichlorophenyl)cyclopropane-1-carboxamido)-N-(4-((trifluoromethyl)thio)phenyl)benzamide]	50 to 100	50 to 100	B (More than 0-Less than 80)	–	–	–
N#Cc1ccc(NC(=O)c2cc(NC(=O)[C@H]3[C@H](c4cc(Cl)cc(Cl)c4)C3(Cl)Cl)ccc2Cl)c(C#N)c1 (relative stereo) [F287, trans-2-Chloro-5-(2,2-dichloro-3-(3,5-dichlorophenyl)cyclopropane-1-carboxamido)-N-(2,4-dicyanophenyl)benzamide]	–	–	–	50 to 100	50 to 100	A (80-100)
O=C(Nc1ccc(F)cc1F)c1cc(NC(=O)[C@H]2[C@H](c3ccc(Br)c(C(F)(F)F)c3)C2(Cl)Cl)ccc1Cl (relative stereo) [F366, 5-(trans)-(3-(4-Bromo-3-(trifluoromethyl)phenyl)-2,2-dichlorocyclopropane-1-carboxamido)-2-chloro-N-(2,4-difluorophenyl)benzamide]	–	–	–	50 to 100	50 to 100	A (80-100)
CN(C(=O)c1cc(NC(=O)[C@H]2[C@H](c3cc(Cl)cc(Cl)c3)C2(Cl)Cl)ccc1F)c1ccc(F)cc1F (relative stereo) [F63, trans-5-(2,2-Dichloro-3-(3,5-dichlorophenyl)cyclopropane-1-carboxamido)-N-(2,4-difluorophenyl)-2-fluoro-N-methylbenzamide]	–	–	–	50 to 100	50 to 100	A (80-100)
CN(C(=O)c1cc(NC(=O)[C@H]2[C@H](c3cccc(C(F)F)c3)C2(Cl)Cl)ccc1Cl)c1ccc(F)cc1 (relative stereo) [F598, 2-Chloro-5-(trans-2,2-dichloro-3-(3-(difluoromethyl)phenyl)cyclopropane-1-carboxamido)-N-(4-fluorophenyl)-N-methylbenzamide]	50 to 100	50 to 100	A (80-100)	–	–	–
Nc1cc(F)ccc1NC(=O)c1cc(NC(=O)[C@H]2[C@H](c3cc(Cl)c(Cl)c(Cl)c3)C2(Cl)Cl)ccc1Cl [F577, N-(2-Amino-4-fluorophenyl)-2-chloro-5-((1R,3R)-2,2-dichloro-3-(3,4,5-trichlorophenyl)cyclopropane-1-carboxamido)benzamide]	50 to 100	50 to 100	A (80-100)	–	–	–
